Assay results from article PMC5671735, “The Effect of CM082, an Oral Tyrosine Kinase Inhibitor, on Experimental Choroidal Neovascularization in Rats” (Journal of Ophthalmology, 2017).
Values joined by “and” are separate entries in the source; they are usually repeats but may differ in a detail not shown here. Equal values may be shown once.

Key:
[1] = tested on: laser-induced CNV rat model; experiment: CNV area in RPE-choroid-sclera flat mounts after FITC-dextran perfusion; type: in vivo, Brown Norway (BN) rats
Description: (§1) Laser photocoagulation-induced CNV was established as previously described. Preoperative preparation included general anesthesia, which was induced with an intraperitoneal injection of 1% pentobarbital sodium (40 mg/kg; Sigma-Aldrich, St. Louis, MO, USA). The rats' pupils were dilated using 0.5% tropicamide and 0.5% phenylephrine (Mydrin-P, Santen Pharmaceutical Co., Osaka, Japan). Surface anesthesia was induced with 0.5% Alcaine (Alcon (China) Ophthalmic Product Co., Beijing, China). Bruch's membrane of the right eye was injured using the following laser parameters: 532 nm wavelength, 360 mW intensity, 0.1 s duration, and 50 μm spot size. Eight to ten laser spots were applied to the major retinal vessels at approximately the same distance to the optic disc. A laser-induced cavitation bubble or slight hemorrhage indicated a rupture in Bruch's membrane. Fundus photography was taken immediately after laser photocoagulation to check for fundus hemorrhage.
To assess the inhibitory effects of CM082 on CNV development, the photocoagulated rats were randomly divided into 2 groups: (1) a CM082-treated group (n = 9) and (2) a vehicle-treated group (n = 9). CM082 (30 mg/kg/d or 5 ml/kg/d) or vehicle (5 ml/kg/d) was administered beginning on the 7th day after laser injury. On the 7th, 14th, or 21st day, 3 rats from each group were anesthetized, and the left ventricle of the heart was perfused with 2 ml of PBS containing 50 mg of fluorescein isothiocyanate- (FITC-) dextran (2 × 10^6 average molecular weight; Sigma-Aldrich). The enucleated eyes were fixed in 4% paraformaldehyde for 1 h. […] The CNV area was measured by ImageJ software (National Institutes of Health, Bethesda, MD, USA).
To further confirm the reverse effect of CM082 at a dose of 30 mg/kg/d on the CNV area, we prepared RPE-choroid-sclera by perfusion with FITC-dextran. […] In addition to comparing the CM082-treated group to the vehicle-treated group, we analyzed the CNV area in the CM082-treated group at different time points.

[2] = tested on: laser-induced CNV rat model; experiment: CNV histology (HE staining); type: in vivo, Brown Norway (BN) rats
Description: as §1
The rats were euthanized after the FFA examination on day 14 or 21 after laser injury, and a histological examination was performed on 4 rats per group at each time point. The animals were enucleated, and the eyes were fixed in paraformaldehyde for 24 h (the eyelashes were also removed). After fixation, the eyes were embedded in paraffin and serially sectioned at 5 μm. […]

[3] = tested on: CNV model produced by subretinal injection of Matrigel; conditions: no reference given; cited from earlier work
[4] = tested on: phosphorylated VEGFR-2 (p-VEGFR-2); experiment: Immunohistochemistry of phosphorylated VEGFR-2 in CNV eyes; type: in vivo, Brown Norway (BN) rats; conditions: CM082 30 mg/kg oral, 14 and 21 days after laser injury, vs vehicle
Description: The rats were euthanized after the FFA examination on day 14 or 21 after laser injury, and a histological examination was performed on 4 rats per group at each time point. The animals were enucleated, and the eyes were fixed in paraformaldehyde for 24 h (the eyelashes were also removed). After fixation, the eyes were embedded in paraffin and serially sectioned at 5 μm. Routine hematoxylin-eosin (HE) staining was performed on selected slides, and the serial sections were examined using a light microscope. Immunohistochemical staining was performed on the histological sections from the CM082-treated and vehicle-treated groups 14 and 21 days after laser administration. Routine immunolocalization procedures were used to dewax and rehydrate the slides. The slides were incubated with 3% hydrogen peroxidase for 25 min and washed in phosphate-buffered saline (PBS) for 5 min. The slides were then blocked in goat serum for 15 min. Next, the sections were incubated with a phosphorylated anti-VEGFR-2 antibody (Nanjing Bioworld Biotech Co., Jiangsu, China) overnight at 4°C, followed by incubation with Goat Anti-Rabbit/Rat IgG antibody (Dako Denmark A/S, Denmark) for 30 min. The sections were subsequently incubated with horseradish peroxidase-conjugated streptavidin (Thermo Fisher Scientific China, Shanghai, China) for 30 min and then counterstained with hematoxylin for 2 min. […]

[5] = LC-MS/MS concentrations of CM082 and its metabolites in plasma and ocular tissues after oral CM082; type: in vivo, Brown Norway (BN) rats
Description: (§2) To assess the CM082 distribution and the inhibitory effects of CM082 on CNV development, the 70 rats were randomly divided into 2 groups: 10 rats for evaluating the CNV rat model and to detect the distribution of CM082 and its metabolites and 60 rats for assessing the effects of CM082 on the experimental CNV. CM082 was administered orally at dose of 10 mg/kg/d or 30 mg/kg/d, while the vehicle ([…]) was used as a negative control.
Liquid chromatography-tandem mass spectrometry (LC-MS/MS) was employed to detect the concentrations of CM082 and its metabolites (X-297 (C22H24FN5O3) and X-471 (C23H28FN5O4)) in the plasma and ocular tissues. An API-4000 triple-quadrupole mass spectrometer (AB Sciex, Framingham, MA, USA) coupled with a Shimadzu liquid chromatography system (Shimadzu Cooperation, Kyoto, Japan) was used for the analysis. CM082, its metabolites, and tolbutamide were dissolved in DMSO to generate 1.0 mg/ml stock solutions stored at 4°C. A total of 200 μl of the tolbutamide stock solution was dissolved in acetonitrile to produce internal-standard working solutions. The plasma and ocular tissue samples were analyzed along with the standard and quality-control samples. The data were analyzed with Analyst 1.6.1 (AB Sciex, Framingham, MA, USA).
Ten BN rats were photocoagulated in the oculus dexter (OD) to build the CNV rat model. Histological examination was performed at day 21, while FFA was conducted at days 14 and 21 to ensure that the CNV model was established successfully and to provide evidence that neovascularization was induced (Figures 1(a), 1(b), and 1(c)). After modeling CNV successfully, to investigate whether CM082 and its metabolites (X-297 and X-471) can reach the retina effectively, the rest of the nine rats were orally treated with CM082 at 10 mg/kg/d for 9 days, starting from day 22. […] Two days after FFA, the rats were sacrificed, and we determined the concentrations of CM082 in the plasma (ng/ml) and the ocular tissues (ng/g) 2 h after CM082 treatment. The concentrations of CM082 in the plasma, the oculus sinister (OS), and the OD were 196.87 ± 24.38 ng/ml, 172.74 ± 20.83 ng/g, and 172.97 ± 18.33 ng/g, respectively. The corresponding concentrations of X-297 were 34.42 ± 3.86 ng/ml, 31.28 ± 4.00 ng/g, and 31.11 ± 3.56 ng/g, while those of X-471 were 32.04 ± 4.57 ng/ml, 16.68 ± 2.18 ng/g, and 15.82 ± 1.85 ng/g.

[6] = tested on: laser-induced CNV rat model; experiment: Fundus fluorescence angiography (FFA) of fluorescein leakage in laser-induced CNV; type: in vivo, Brown Norway (BN) rats
Description: as §1, §2
The preoperative preparations were the same as those used to establish the CNV model. Approximately 0.2 ml of 10% sodium fluorescein (Alcon Japan, Tokyo, Japan) was injected intraperitoneally, and the leakage of fluorescein from the laser lesions was monitored dynamically for up to 15 min. The images were obtained using confocal scanning laser ophthalmoscopy (Spectralis, Heidelberg Engineering Inc., Heidelberg, Germany) and analyzed using ImageJ software (National Institutes of Health, Bethesda, MD, USA). The signal intensities (brightness of the CNV lesions) defined the degree of leakage. As a reference, the intensity of the capillaries in the normal regions was defined as 0, whereas the intensity at the major branch of the retinal vein was defined as 1.
To determine whether CM082 inhibited CNV progression, 60 BN rats were divided into 4 groups and randomized by weight, with 10 rats receiving CM082 at 10 mg/kg/d, 10 receiving CM082 at 30 mg/kg/d, 20 receiving vehicle treatment, and 20 undergoing the RPE-choroid-sclera preparation. […] The CNV analysis was performed on day 14 or 21 after laser photocoagulation using FFA, histological examinations, and immunohistochemistry.

[7] = type: in vivo; conditions: oral CM082 10 or 30 mg/kg/d
From the text: […] BN rats were used in this study.

[8] = tested on: oxidative-induced retinopathy; conditions: CM082-treated group compared to control group; no reference given; cited from earlier work

SMILES: Cc1[nH]c(/C=C2\C(=O)Nc3ccc(F)cc32)c(C)c1C(=O)N[C@H]1CCN(C(=O)N(C)C)C1 [CM082]
- area of the CNV lesions ([1]; 30 mg/kg/d group, 7 days after laser photocoagulation, before dosing (baseline), vehicle 4.84 ± 0.72): 4.45 ± 0.90 μm^2 × 10^4
- area of the CNV lesions ([1]; CM082 30 mg/kg/d oral from day 7, 14 days after laser injury, vehicle 9.60 ± 1.68): 1.48 ± 0.24 μm^2 × 10^4
- area of the CNV lesions ([1]; CM082 30 mg/kg/d oral from day 7, 21 days after laser injury, vehicle 19.61): 1.03 ± 0.27 μm^2 × 10^4
- CNV lesion size by histology (HE) ([2]; CM082 10 mg/kg/d oral, day 21, vs vehicle): smaller
- edema, depigmentation, and CNV areas by histology (HE) ([2]; CM082 30 mg/kg/d oral, 14 and 21 days after laser photocoagulation, vs vehicle): significantly decreased
- areas of CNV lesions [3]: reduced the areas of CNV lesions
- p-VEGFR-2 immunostaining [4]: reduced the aggregation of p-VEGFR-2 in the RPE and OPL
- distribution within the ocular tissues ([5]; 2 h after CM082 administration, oral 10 mg/kg/d): highest in the retina-sclera
- concentration in the oculus sinister (OS) ([5]; CM082 oral 10 mg/kg/d for 9 days, 2 h after CM082 treatment, n = 9, eye without laser injury): 172.74 ± 20.83 ng/g
- concentration in the oculus dexter (OD) ([5]; CM082 oral 10 mg/kg/d for 9 days, 2 h after CM082 treatment, n = 9, photocoagulated eye): 172.97 ± 18.33 ng/g
- concentration in the plasma ([5]; CM082 oral 10 mg/kg/d for 9 days, 2 h after CM082 treatment, n = 9, 10 mg/kg/day): 196.87 ± 73.13 ng/mL and 196.87 ± 24.38 ng/mL
- total concentration in the eyes ([5]; oral CM082, abstract value): 172.86 ± 57.11 ng/g
- FFA leakage signal intensity ([6]; 10 mg/kg/d group, day 7 after laser injury, before CM082 administration (baseline), scale 0 = capillaries, 1 = retinal vein, vehicle 0.81 ± 0.03): 0.78 ± 0.04
- FFA leakage signal intensity ([6]; 30 mg/kg/d group, day 7 after photocoagulation, before dosing (baseline), vehicle 0.81 ± 0.02, p > 0.05): 0.77 ± 0.04
- FFA leakage signal intensity ([6]; CM082 10 mg/kg/d oral from day 7, day 21 after laser injury (14 days after dosing), vehicle 0.82 ± 0.03, p < 0.01): 0.66 ± 0.05
- FFA fluorescein leakage vs days 14 and 21 ([6]; CM082 10 mg/kg/d oral started day 22 after laser, FFA after 7 days of administration (day 28), p > 0.05): no significant reduction in fluorescein leakage
- FFA leakage signal intensity ([6]; CM082 30 mg/kg/d oral from day 7, day 14, vehicle 0.83 ± 0.03, p < 0.001): 0.42 ± 0.03
- FFA leakage signal intensity ([6]; CM082 30 mg/kg/d oral from day 7, day 21, vehicle 0.86 ± 0.02, p < 0.001): 0.35 ± 0.05
- tolerability during treatment [7]: no behavioral change, death, or body weight loss
- inhibition rate [8]: 71.1%
